Assay results taken from the NIST ThermoML archive (doi:10.1021/je700029q).

Tests used:
[1] = xn = mol fraction of the nth substance listed; conditions: 101 kPa, Liquid
[2] = refractive index (Na D-line) (dimensionless); xn = mol fraction of the nth substance listed; conditions: 298.15 K, 101 kPa, Liquid

CCOS(=O)(=O)[O-].CCn1cc[n+](C)c1 [1-ethyl-3-methylimidazolium ethyl sulfate] + CC(C)O
[1]
Conditions | mass density, 298.15 K [kg/m3] | mass density, 313.15 K [kg/m3] | mass density, 328.15 K [kg/m3] | speed of sound, 298.15 K [m/s] | speed of sound, 313.15 K [m/s] | speed of sound, 328.15 K [m/s] | viscosity, 298.15 K [mPa·s] | viscosity, 313.15 K [mPa·s] | viscosity, 328.15 K [mPa·s]
x2 = 0 | 1237.6 | 1227.5 | 1217.5 | 1679 | 1643 | 1605 | 97.58 | 50.01 | 29.18
x2 = 0.1228 | 1214.3 | 1204.4 | 1194.5 | 1644 | 1608 | 1569 | 69.71 | 37.79 | 22.97
x2 = 0.2066 | 1196.4 | 1186.4 | 1176.3 | 1611 | 1576 | 1537 | 53.67 | 30.34 | 18.93
x2 = 0.309 | 1170.9 | 1160.9 | 1150.7 | 1570 | 1534 | 1494 | 40.1 | 23.56 | 15.2
x2 = 0.399 | 1144.9 | 1134.7 | 1124.3 | 1529 | 1491 | 1451 | 29.79 | 18.23 | 12.1
x2 = 0.4977 | 1111.8 | 1101.3 | 1090.7 | 1475 | 1439 | 1399 | 21.14 | 13.41 | 9.184
x2 = 0.6341 | 1054.2 | 1043.5 | 1032.6 | 1399 | 1360 | 1318 | 12.4 | 8.274 | 5.878
x2 = 0.7223 | 1008.5 | 997.4 | 986.2 | 1342 | 1302 | 1259 | 8.462 | 5.753 | 4.15
x2 = 0.8551 | 920.2 | 908.6 | 896.6 | 1251 | 1207 | 1161 | 4.475 | 3.081 | 2.225
x2 = 0.9706 | 814.1 | 801.7 | 788.5 | 1164 | 1113 | 1063 | 2.499 | 1.658 | 1.147

[2]
Conditions | refractive index
x2 = 0 | 1.4794
x2 = 0.1228 | 1.47434
x2 = 0.2066 | 1.47057
x2 = 0.309 | 1.46502
x2 = 0.399 | 1.45926
x2 = 0.4977 | 1.45177
x2 = 0.6341 | 1.43881
x2 = 0.7223 | 1.42818
x2 = 0.8551 | 1.40784
x2 = 0.9706 | 1.38306

CC(C)O [propan-2-ol] + CCOS(=O)(=O)[O-].CCn1cc[n+](C)c1
[1], x1 = 1
Conditions | mass density [kg/m3] | speed of sound [m/s] | viscosity [mPa·s]
298.15 K | 780.7 | 1138 | 2.082
313.15 K | 767.8 | 1085 | 1.354
328.15 K | 753.9 | 1031 | 0.919

Conditions | refractive index
[2], x1 = 1 | 1.37495

CO [methanol] + CCOS(=O)(=O)[O-].CCn1cc[n+](C)c1
[1], x1 = 1
Conditions | mass density [kg/m3] | speed of sound [m/s] | viscosity [mPa·s]
298.15 K | 786.4 | 1103 | 0.546
313.15 K | 772.3 | 1055 | 0.446
328.15 K | 757.8 | 1006 | 0.369

Conditions | refractive index
[2], x1 = 1 | 1.32687

CCOS(=O)(=O)[O-].CCn1cc[n+](C)c1 [1-ethyl-3-methylimidazolium ethyl sulfate] + CO
[1]
Conditions | mass density, 298.15 K [kg/m3] | mass density, 313.15 K [kg/m3] | mass density, 328.15 K [kg/m3] | speed of sound, 298.15 K [m/s] | speed of sound, 313.15 K [m/s] | speed of sound, 328.15 K [m/s] | viscosity, 298.15 K [mPa·s] | viscosity, 313.15 K [mPa·s] | viscosity, 328.15 K [mPa·s]
x2 = 0 | 1237.6 | 1227.5 | 1217.5 | 1679 | 1641 | 1605 | 97.58 | 50.01 | 29.18
x2 = 0.1346 | 1224.2 | 1214.1 | 1204 | 1663 | 1627 | 1588 | 60.93 | 33.83 | 20.92
x2 = 0.2595 | 1209.1 | 1199 | 1188.6 | 1640 | 1603 | 1564 | 39.32 | 23.4 | 15.25
x2 = 0.3267 | 1199.4 | 1189.1 | 1178.8 | 1624 | 1587 | 1549 | 30.59 | 18.94 | 12.65
x2 = 0.4741 | 1171.9 | 1161.3 | 1150.7 | 1583 | 1546 | 1506 | 16.38 | 11.02 | 7.887
x2 = 0.5701 | 1146.8 | 1135.9 | 1125.1 | 1547 | 1509 | 1469 | 10.12 | 7.173 | 5.387
x2 = 0.6664 | 1113.9 | 1102.9 | 1091.8 | 1500 | 1461 | 1420 | 6.45 | 4.776 | 3.661
x2 = 0.7757 | 1059 | 1047.5 | 1035.9 | 1423 | 1382 | 1340 | 3.232 | 2.508 | 2.02
x2 = 0.8294 | 1021.1 | 1009.2 | 997.3 | 1371 | 1330 | 1287 | 2.351 | 1.86 | 1.501
x2 = 0.923 | 924.9 | 912.2 | 899.3 | 1251 | 1207 | 1162 | 1.639 | 0.901 | 0.666
x2 = 0.9626 | 863.7 | 850.4 | 836.9 | 1187 | 1137 | 1090 | 1.263 | 0.66 | 0.551
x2 = 0.9917 | 806 | 792.2 | 777.7 | 1123 | 1076 | 1029 | 1.039 | 0.516 | 0.43

[2]
Conditions | refractive index
x2 = 0 | 1.4794
x2 = 0.1346 | 1.47491
x2 = 0.2595 | 1.47006
x2 = 0.3267 | 1.46675
x2 = 0.4741 | 1.45742
x2 = 0.5701 | 1.44913
x2 = 0.6664 | 1.43808
x2 = 0.7757 | 1.42043
x2 = 0.8294 | 1.4078
x2 = 0.923 | 1.37377
x2 = 0.9626 | 1.35299
x2 = 0.9917 | 1.33319

CCCO [propan-1-ol] + CCOS(=O)(=O)[O-].CCn1cc[n+](C)c1
[1], x1 = 1
Conditions | mass density [kg/m3] | speed of sound [m/s] | viscosity [mPa·s]
298.15 K | 799.6 | 1207 | 2.017
313.15 K | 787.4 | 1155 | 1.43
328.15 K | 774.8 | 1105 | 1.041

Conditions | refractive index
[2], x1 = 1 | 1.3831
